# Reference: patent US9187518B2, “Antiangiogenic brassinosteroid compounds” (CONSEJO NACIONAL DE INVESTIGACIONES CIENTIFICAS Y TECNICAS …, priority 2011, dated 2015)
# Legend:
# [1] = tested on: LMM3 cells; assay: In vivo neovascular response induced by LMM3 cells in BALB/c mice; settings: intradermal, 5 days
# Protocol: For the in vivo assay, 2×10^6 cells/mL were grown in 1 mL of complete medium in 6 wells plates. Compound 1 was incubated with LMM3 cells during 1 h and 6 hs. Also, a group of non-treated tumoral cells were grown and incubated. Then, all the cells from each group were washed with PBS, trypsinized and re-suspended in 0.9 ml of F12 medium without FBS.
# Female BALB/c mice were randomized as follows:
# • Sham N=4 • LMM3 N=4 • LMM3+Compound 1-1 hour treatment N=4 • LMM3+Compound 1-6 hours treatment N=4
# Then, inoculation of 2×10^5 cells/0.1 mL was done intradermically in the mouse flanks. After 5 days the animals were sacrificed and photographs of the inoculation site were taken.
# The vessels density was quantified in each animal and the results were analized by ANOVA followed by the Tukey test. Results were expressed as the median of vessels density (vessels/mm^2+/−ES).
# [2] = tested on: HSV-1; assay: Anti-HSV-1 activity (multiplication and viral spreading) in human conjunctival and corneal cells; assay type: cell-based, Herpes simplex virus type 1
# [3] = tested on: J774A.1 cells stimulated with LPS; assay: Microarray gene expression in J774A.1 cells stimulated with LPS; assay type: cell-based, mouse; settings: J774A.1, 100 ng/ml LPS, 40 μM, 6 h
# Protocol: HSV-1 infected cells and LPS stimulated cells were transcriptionally analyzed by using the whole human genome microarray and whole mouse genome microarray (Agilent Technologies, Santa Clara, Calif.), corresponding to 41,000 human or mice genes and transcripts.
# RNA was extracted with chloroform/isopropanol and purified from Trizol.
# cDNA synthesis, amplification and labeling of cRNA was performed, following the protocol of two colors of Agilent. Cyanine: 3-CTP and 5-CTP labeled cRNA was prepared from purified RNA (Two-Color Microarray-Based Gene Expression Analysis—Quick Amp Labeling, Agilent). Labeled cRNA was purified, quantified and the efficiency of labeling determined.
# After that, we proceeded with the hybridization, washing, assembling of the chips and scanning. The scanner software (Feature extraction) performed the scan quality control. The fluorescence intensity data obtained for each chip were analyzed using GeneSpring XG11 and Multi Experiment Viewer (MeV) programs.
# Labeled samples were placed in human and mouse hybridizing chips for HCLE and J774A.1 cells, respectively, during 17 h at 60° C. Successive washings were done with different washing, stabilization and drying solutions, and samples were scanned in the Agilent scanner G2565BA.
# We used the commercial software Agilent Feature Extraction for quality control of the scan. The software converts the scanned images produced in quantitative data for further analysis. It calculates the errors associated with hybridization, washing and scanning and detects outliers. On the one hand, it performs an analysis of the image to locate the grid on the chip and in it, the spots for each gene, and on the other hand, it makes an analysis of data, to define and measure information (fluorescence intensity) of each spot, for the analysis of gene expression.
# We identified differentially expressed genes with statistical significance. We used two programs, the XG11 and GeneSpring and the Multi Experiment Viewer (MeV).
# For this purpose, epithelial infected and inflammatory cells were processed to obtain RNA samples. HCLE cells infected with HSV-1 (m.o.i.=1) and J774A.1 cells stimulated with LPS (100 ng/ml) were treated or not with 40 μM of Compound 1. To extract total RNA, cells were harvested with Trizol at 6 h p.i. and at 6 h post-LPS induction. Eight replicates were obtained from HSV-1 infected and LPS-stimulated cells (four ‘control’ each) and other eight, from infected and LPS-stimulated cells treated with Compound 1 (four ‘treated’ each).
# [4] = tested on: TNF-α; assay: TNF-α secretion in epithelial cells (ELISA); assay type: cell-based, human
smiles,measurement,setting,value
"CC[C@@H](C(C)C)[C@H](O)[C@@H](O)[C@@H](C)[C@H]1CC[C@H]2[C@@H]3CCC4=CC(=O)CC[C@]4(C)[C@H]3CC[C@]12C [Compound 1, (22S,23S)-22,23-dihydroxystigmast-4-en-3-one]",angiogenic response induced by LMM3 cells (vessel density),[1]; LMM3 cells pre-incubated with 0.025 μg/μl during 1 h,significantly reduced
same,angiogenic response induced by LMM3 cells (vessel density),[1]; LMM3 cells pre-incubated with 0.025 μg/μl during 6 h,significantly reduced
same,HSV-1 multiplication and viral spreading,[2]; human conjunctival cells,prevents
same,selectivity indices (SI),[2]; human conjunctival cells,13.2
same,HSV-1 multiplication and viral spreading,[2]; human corneal cells,prevents
same,selectivity indices (SI),[2]; human corneal cells,9.3
same,Dusp2 gene expression,[3],restrained
same,expression of ATF3 and TLR4,[3],overexpressed
same,expression of IL-10 and Socs2,[3]; vs untreated control,increased
same,"expression of genes for IL-12, IL-23 and CXCL10",[3]; vs untreated stimulated,overexpression
same,TNF-α production,"[4]; HSV-1 infected IOBA-NHC cells, 40 μM, 24 h",did not affect TNF-α production
same,TNF-α release,"[4]; uninfected treated cells, compound alone",did not induce TNF-α release by itself
